Numbers after ± are expanded uncertainties.

The nature of the data set: activity coefficient (dimensionless); of the first substance listed, at infinite dilution; xn = mol fraction of the nth substance listed. Particulars: 100 kPa, Liquid, Chromatography, x1 = 0.

Regarding `Cc1ccccc1C` [1,2-dimethylbenzene] + CC(O)C(=O)[O-].CC[N+]1(C)CCCC1, the activity coefficient by setting is: (318.15 K) 8.23 ± 0.71; (328.15 K) 8.33 ± 0.72; (338.15 K) 8.46 ± 0.73; (348.15 K) 8.57 ± 0.74; (358.15 K) 8.69 ± 0.75; (368.15 K) 8.9 ± 0.8.
Take `Cc1cccc(C)c1` [1,3-dimethylbenzene] + CC(O)C(=O)[O-].CC[N+]1(C)CCCC1: the activity coefficient runs as follows: (318.15 K) 10.1 ± 0.9; (328.15 K) 10.2 ± 0.9; (338.15 K) 10.4 ± 0.9; (348.15 K) 10.4 ± 0.9; (358.15 K) 10.5 ± 0.9; (368.15 K) 10.7 ± 0.9.
As for `Cc1ccc(C)cc1` [1,4-dimethylbenzene] + CC(O)C(=O)[O-].CC[N+]1(C)CCCC1, the activity coefficient (318.15 K) was found to be 10 ± 0.9; the activity coefficient (328.15 K) is 10.1 ± 0.9; the activity coefficient (338.15 K) came to 10.3 ± 0.9; the activity coefficient (348.15 K) stood at 10.4 ± 0.9; the activity coefficient (358.15 K) came out at 10.5 ± 0.9; the activity coefficient (368.15 K) came out at 10.7 ± 0.9.
As for `C1COCCO1` [1,4-dioxane] + CC(O)C(=O)[O-].CC[N+]1(C)CCCC1, the activity coefficient came to 2.25 ± 0.19 (318.15 K); 2.33 ± 0.2 (328.15 K); 2.4 ± 0.21 (338.15 K); 2.48 ± 0.21 (348.15 K); 2.55 ± 0.22 (358.15 K); 2.65 ± 0.23 (368.15 K).
On to `C=CCCCCCCCC` [1-decene] + CC(O)C(=O)[O-].CC[N+]1(C)CCCC1, for which the activity coefficient (308.15 K) is 349 ± 30; the activity coefficient (318.15 K) stood at 326 ± 28; the activity coefficient (328.15 K) was determined as 302 ± 26; the activity coefficient (338.15 K) amounted to 284 ± 25; the activity coefficient (348.15 K) amounted to 268 ± 23; the activity coefficient (358.15 K) is 252 ± 22. Moreover, the activity coefficient (368.15 K) worked out at 238 ± 21.
Take `C=CCCCCC` [1-heptene] + CC(O)C(=O)[O-].CC[N+]1(C)CCCC1: the activity coefficient reads like this: (308.15 K) 88.8 ± 7.7; (318.15 K) 83.8 ± 7.3; (328.15 K) 78.7 ± 6.8; (338.15 K) 75.2 ± 6.5; (348.15 K) 71.9 ± 6.2; (358.15 K) 68.8 ± 6. Moreover, the activity coefficient (368.15 K) came out at 66.4 ± 5.7.
`C#CCCCCC` [1-heptyne] + CC(O)C(=O)[O-].CC[N+]1(C)CCCC1: the activity coefficient is, setting by setting: (308.15 K) 8.33 ± 0.72; (318.15 K) 8.83 ± 0.76; (328.15 K) 9.25 ± 0.8; (338.15 K) 9.82 ± 0.85; (348.15 K) 10.3 ± 0.9; (358.15 K) 10.7 ± 0.9. The activity coefficient (368.15 K) came out at 11.2 ± 1.
As for `C#CCCCC` [1-hexyne] + CC(O)C(=O)[O-].CC[N+]1(C)CCCC1, the activity coefficient (308.15 K) was 5.14 ± 0.44; the activity coefficient (318.15 K) turned out to be 5.48 ± 0.47; the activity coefficient (328.15 K) worked out at 5.79 ± 0.5; the activity coefficient (338.15 K) came out at 6.21 ± 0.54; the activity coefficient (348.15 K) turned out to be 6.54 ± 0.56; the activity coefficient (358.15 K) amounted to 6.92 ± 0.6. Moreover, the activity coefficient (368.15 K) was 7.24 ± 0.62.
With `CCC[N+](=O)[O-]` [1-nitropropane] + CC(O)C(=O)[O-].CC[N+]1(C)CCCC1, the activity coefficient reads like this: (318.15 K) 1.75 ± 0.15; (328.15 K) 1.8 ± 0.15; (338.15 K) 1.86 ± 0.16; (348.15 K) 1.92 ± 0.16; (358.15 K) 1.98 ± 0.17; (368.15 K) 2.06 ± 0.18.
Turning to `C#CCCCCCC` [1-octyne] + CC(O)C(=O)[O-].CC[N+]1(C)CCCC1, the activity coefficient is, setting by setting: (308.15 K) 13.6 ± 1.2; (318.15 K) 14.2 ± 1.2; (328.15 K) 14.7 ± 1.3; (338.15 K) 15.5 ± 1.3; (348.15 K) 16 ± 1.4; (358.15 K) 16.6 ± 1.4. Besides, where the note is “368.15 K”, the activity coefficient was 17.1 ± 1.5.
As for `C#CCCC` [1-pentyne] + CC(O)C(=O)[O-].CC[N+]1(C)CCCC1, the activity coefficient by setting is: (308.15 K) 3.18 ± 0.27; (318.15 K) 3.43 ± 0.3; (328.15 K) 3.66 ± 0.32; (338.15 K) 3.95 ± 0.34; (348.15 K) 4.2 ± 0.4; (358.15 K) 4.46 ± 0.38. Also, where the note is “368.15 K”, the activity coefficient worked out at 4.69 ± 0.4.
Take `CC(C)CC(C)(C)C` [2,2,4-trimethylpentane] + CC(O)C(=O)[O-].CC[N+]1(C)CCCC1: the activity coefficient reads like this: (308.15 K) 270 ± 23; (318.15 K) 242 ± 21; (328.15 K) 220 ± 19; (338.15 K) 201 ± 17; (348.15 K) 187 ± 16; (358.15 K) 173 ± 15. Also, the activity coefficient (368.15 K) amounted to 161 ± 14.
With `CCOC(C)(C)C` [2-ethoxy-2-methylpropane] + CC(O)C(=O)[O-].CC[N+]1(C)CCCC1, the activity coefficient amounted to 46.2 ± 4 (308.15 K); 45.2 ± 3.9 (318.15 K); 43.9 ± 3.8 (328.15 K); 42.5 ± 3.7 (338.15 K); 41.6 ± 3.6 (348.15 K); 40.7 ± 3.5 (358.15 K). For the same compound, the activity coefficient (368.15 K) turned out to be 39.7 ± 3.4.
Take `CCCCC(C)=O` [2-hexanone] + CC(O)C(=O)[O-].CC[N+]1(C)CCCC1: the activity coefficient was 7.09 ± 0.61 (318.15 K); 7.16 ± 0.62 (328.15 K); 7.22 ± 0.62 (338.15 K); 7.31 ± 0.63 (348.15 K); 7.39 ± 0.64 (358.15 K); 7.54 ± 0.65 (368.15 K).
In the case of `CCC(C)(C)OC` [2-methoxy-2-methylbutane] + CC(O)C(=O)[O-].CC[N+]1(C)CCCC1, the activity coefficient is, setting by setting: (308.15 K) 27.9 ± 2.4; (318.15 K) 27.8 ± 2.4; (328.15 K) 27.3 ± 2.4; (338.15 K) 26.8 ± 2.3; (348.15 K) 26.3 ± 2.3; (358.15 K) 26.1 ± 2.3. The activity coefficient (368.15 K) stood at 25.8 ± 2.2.
Regarding `COC(C)(C)C` [2-methoxy-2-methylpropane] + CC(O)C(=O)[O-].CC[N+]1(C)CCCC1, the activity coefficient (308.15 K) was determined as 18.1 ± 1.6; the activity coefficient (318.15 K) stood at 18 ± 1.6; the activity coefficient (328.15 K) was determined as 17.9 ± 1.5; the activity coefficient (338.15 K) turned out to be 17.9 ± 1.5; the activity coefficient (348.15 K) is 17.8 ± 1.5; the activity coefficient (358.15 K) is 17.7 ± 1.5. Besides, the activity coefficient (368.15 K) amounted to 17.7 ± 1.5.
Regarding `CCCC(=O)CC` [3-hexanone] + CC(O)C(=O)[O-].CC[N+]1(C)CCCC1, the activity coefficient came to 8.06 ± 0.7 (318.15 K); 8.06 ± 0.7 (328.15 K); 8.12 ± 0.7 (338.15 K); 8.19 ± 0.71 (348.15 K); 8.25 ± 0.71 (358.15 K); 8.4 ± 0.73 (368.15 K).
For the compound `CCC(C)CC` [3-methylpentane] + CC(O)C(=O)[O-].CC[N+]1(C)CCCC1, the activity coefficient by setting is: (308.15 K) 122 ± 11; (318.15 K) 111 ± 10; (328.15 K) 102 ± 9; (338.15 K) 94.5 ± 8.2; (348.15 K) 88.7 ± 7.7; (358.15 K) 83.5 ± 7.2. Also, the activity coefficient (368.15 K) amounted to 78.4 ± 6.8.
In the case of `CC(C)=O` [acetone] + CC(O)C(=O)[O-].CC[N+]1(C)CCCC1, the activity coefficient (318.15 K) worked out at 1.93 ± 0.17; the activity coefficient (328.15 K) came to 1.97 ± 0.17; the activity coefficient (338.15 K) turned out to be 2.03 ± 0.18; the activity coefficient (348.15 K) was 2.08 ± 0.18; the activity coefficient (358.15 K) worked out at 2.14 ± 0.18; the activity coefficient (368.15 K) is 2.21 ± 0.19.

Values taken from the NIST ThermoML archive (doi:10.1016/j.jct.2015.05.014).
